Patent US12552758B2, “Inhibitors of MLH1 and/or PMS2 for cancer treatment” (NeoPhore Limited, priority 2020, dated 2026)

Key:
[1] = molecular target: recombinant N-terminal PMS2 (residues 1-365) (Homo sapiens (Human), UniProt P54278); experiment: Fluorescence polarisation assay for PMS2; assay type: binding; details: FP probe displacement; 10 nM N-terminal PMS2, 5 nM probe compound, read after 1 hour
Protocol: Fluorescence Polarisation Assay for PMS2
(§1) Test compounds, as 10 mM DMSO stocks, were dispensed into a Black Fluotrac 200 384 well medium binding plate (Greiner Bio-One, item number 781076) using a Labcyte Echo acoustic liquid handler. For single point screening, test compounds were added to wells in columns 1-22 whilst DMSO was added to wells in columns 23 and 24 in order to normalise the plate. For potency determination, serial dilutions of test compounds were added to wells in columns 3-22 and DMSO volume was normalised across the plate.
20 μL assay buffer was added to all wells in columns 1 and 24 (column 24 only for single point screening) using a MultiDrop Combi (ThermoFisher). Plates were centrifuged for 1 minute at 250×g and were incubated at room temperature for 30 minutes prior to the addition of 20 μL of 2×([…]) of 5-((5-(4-((2-(2,4-dihydroxy-5-isopropylbenzoyl)isoindolin-5-yl)methyl)piperazin-1-yl)pentyl)carbamoyl)-2-(6-(dimethylamino)-3-(dimethyliminio)-3H-xanthen-9-yl)benzoate (referred to hereinafter as “probe compound”) in assay buffer (prepared from a 100 μM DMSO stock) with a MultiDrop Combi (ThermoFisher). The final concentration of N-terminal PMS2 was 10 nM and the final concentration of probe compound was 5 nM.
(§2) Compound plates were centrifuged for 1 minute at 250×g for 1 minute and were incubated at room temperature for 1 hour before being read on a PheraStar FSX (fitted with 384-well aperture spoon and 540 590 590 FP optic module). The gain and focus were adjusted before each plate was read so that the polarisation of a no enzyme control (column 24) was equal to 35 mP. Data were normalised against the no inhibitor controls (column 23) and no enzyme controls (column 24).

[2] = molecular target: recombinant N-terminal MLH1 (residues 15-340) (Homo sapiens (Human), UniProt P40692); experiment: Fluorescence polarisation assay for MLH1 (protocol for all Examples except Examples 64, 76, 90 and 95); assay type: binding; details: FP probe displacement; 100 nM N-terminal MLH1, 5 nM probe compound, read after 15 minutes; all Examples except 64, 76, 90 and 95
Protocol: Fluorescence Polarisation Assay for MLH1 (Protocol for all Examples Except Examples 64, 76, 90 and 95)
as §1
20 μL assay buffer was added to all wells in columns 1 and 24 (column 24 only for single point screening) using a MultiDrop Combi (ThermoFisher). Plates were centrifuged for 1 minute at 250×g and were incubated at room temperature for 30 minutes prior to the addition of 20 μL of 2×(10 nM) of 5-((5-(4-((2-(2,4-dihydroxy-5-isopropylbenzoyl)isoindolin-5-yl)methyl)piperazin-1-yl)pentyl)carbamoyl)-2-(6-(dimethylamino)-3-(dimethyliminio)-3H-xanthen-9-yl)benzoate (referred to hereinafter as “probe compound”) in assay buffer (prepared from a 100 μM DMSO stock) with a MultiDrop Combi (ThermoFisher). The final concentration of N-terminal MLH1 was 100 nM and the final concentration of probe compound was 5 nM.
as §2, with “15 minutes” for “1 hour”

Sequence of recombinant N-terminal PMS2 (residues 1-365) (P54278 1-365): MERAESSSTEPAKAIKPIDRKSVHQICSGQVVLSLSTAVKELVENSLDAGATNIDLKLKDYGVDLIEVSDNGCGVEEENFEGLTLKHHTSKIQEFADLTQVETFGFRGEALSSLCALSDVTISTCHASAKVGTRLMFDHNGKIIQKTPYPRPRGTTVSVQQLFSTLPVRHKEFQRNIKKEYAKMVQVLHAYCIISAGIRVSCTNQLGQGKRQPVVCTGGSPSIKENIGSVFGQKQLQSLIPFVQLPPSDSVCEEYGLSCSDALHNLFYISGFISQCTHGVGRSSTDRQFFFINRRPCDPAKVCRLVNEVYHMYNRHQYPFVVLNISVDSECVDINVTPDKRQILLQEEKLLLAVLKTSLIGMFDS
Sequence of recombinant N-terminal MLH1 (residues 15-340) (P40692 15-340): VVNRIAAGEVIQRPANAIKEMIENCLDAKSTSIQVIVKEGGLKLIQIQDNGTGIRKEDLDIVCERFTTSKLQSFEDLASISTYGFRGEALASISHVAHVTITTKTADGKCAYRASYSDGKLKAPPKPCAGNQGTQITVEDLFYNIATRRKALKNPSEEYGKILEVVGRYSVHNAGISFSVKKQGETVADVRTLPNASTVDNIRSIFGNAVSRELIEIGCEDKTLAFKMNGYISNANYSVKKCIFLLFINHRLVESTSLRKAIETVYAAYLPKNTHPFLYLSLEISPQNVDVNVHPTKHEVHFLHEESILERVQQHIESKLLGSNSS

IC50 [1] | IC50 [2] | Structure (SMILES)
< 1000 nM | > 10 µM | Cc1c(O)cc(O)c(C(=O)N2Cc3cccc(NC4CCOC4)c3C2)c1OCc1ccccc1 (centres unmarked) [Example 79, (2-(Benzyloxy)-4,6-dihydroxy-3-methylphenyl)(4-((tetrahydrofuran-3-yl)amino)isoindolin-2-yl)methanone]
< 1000 nM | 1 to 10 µM | Cc1c(O)cc(O)c(C(=O)N2Cc3cccc(NC4COC4)c3C2)c1OCc1ccccc1 [Example 80, (2-(Benzyloxy)-4,6-dihydroxy-3-methylphenyl)(4-(oxetan-3-ylamino)isoindolin-2-yl)methanone]
< 1000 nM | > 10 µM | Cc1c(O)cc(O)c(C(=O)N2Cc3cccc(N4CCCC(O)C4)c3C2)c1OCc1ccccc1 (centres unmarked) [Example 81, (2-(Benzyloxy)-4,6-dihydroxy-3-methylphenyl)(4-(3-hydroxypiperidin-1-yl)isoindolin-2-yl)methanone]
< 1000 nM | > 10 µM | Cc1c(O)cc(O)c(C(=O)N2Cc3cccc(C#N)c3C2)c1OCc1ccccc1 [Example 82, 2-(2-(benzyloxy)-4,6-dihydroxy-3-methylbenzoyl)isoindoline-4-carbonitrile]
< 1000 nM | > 10 µM | Cc1c(O)cc(O)c(C(=O)N2Cc3ccc(C(=O)N(C)C)cc3C2)c1OCc1ccccc1 [Example 83, 2-(2-(Benzyloxy)-4,6-dihydroxy-3-methylbenzoyl)-N,N-dimethylisoindoline-5-carboxamide]
< 1000 nM | > 10 µM | CNC(=O)c1ccc2c(c1)CN(C(=O)c1c(O)cc(O)c(C)c1OCc1ccccc1)C2 [Example 84, 2-(2-(Benzyloxy)-4,6-dihydroxy-3-methylbenzoyl)-N-methylisoindoline-5-carboxamide]
< 1000 nM | > 10 µM | Cc1c(O)cc(O)c(C(=O)N2Cc3cccc(C(=O)N(C)C)c3C2)c1OCc1ccccc1 [Example 85, 2-(2-(Benzyloxy)-4,6-dihydroxy-3-methylbenzoyl)-N,N-dimethylisoindoline-4-carboxamide]
1000 to 10000 nM | > 10 µM | CNC(=O)c1cccc2c1CN(C(=O)c1c(O)cc(O)c(C)c1OCc1ccccc1)C2 [Example 86, 2-(2-(benzyloxy)-4,6-dihydroxy-3-methylbenzoyl)-N-methylisoindoline-4-carboxamide]
< 1000 nM | > 10 µM | CC(=O)Nc1cccc2c1CN(C(=O)c1c(O)cc(O)c(C)c1OCc1ccccc1)C2 [Example 87, N-(2-(2-(benzyloxy)-4,6-dihydroxy-3-methylbenzoyl)isoindolin-4-yl)acetamide]
< 1000 nM | > 10 µM | Cc1c(O)cc(O)c(C(=O)N2Cc3cccc(OCC4CNC4)c3C2)c1OCc1ccccc1 [Example 89, (4-(Azetidin-3-yl methoxy)isoindolin-2-yl) (2-(benzyloxy)-4,6-dihydroxy-3-methylphenyl) methanone]
< 1000 nM | > 10 µM | Cc1c(O)cc(O)c(C(=O)N2Cc3cccc(N4CC(C#N)C4)c3C2)c1OCc1ccccc1 [Example 91, 1-(2-(2-(Benzyloxy)-4,6-dihydroxy-3-methylbenzoyl)isoindolin-4-yl)azetidine-3-carbonitrile]
< 1000 nM | > 10 µM | COc1c(C)c(O)cc(O)c1C(=O)N1Cc2ccc(CN3CCN(C)CC3)cc2C1 [Example 92, (4,6-Dihydroxy-2-methoxy-3-methylphenyl)(5-((4-methylpiperazin-1-yl)methyl)isoindolin-2-yl)methanone]

The next lines start with the compound.

Structure (SMILES) | IC50 [1] | IC50 [2]
Cc1c(O)cc(O)c(C(=O)N2CCc3cc(CN(C)C)ccc3C2)c1OCc1ccccc1 [Example 61, (2-(benzyloxy)-4,6-dihydroxy-3-methylphenyl)(6-((dimethylamino)methyl)-3,4-dihydroisoquinolin-2(1H)-yl)methanone] | < 1000 nM | > 10 µM
Cc1c(O)cc(O)c(C(=O)N2Cc3ccccc3C[C@H]2CO)c1OCc1ccccc1 [Example 62, (S)-(2-(Benzyloxy)-4,6-dihydroxy-3-methylphenyl)(3-(hydroxymethyl)-3,4-dihydroisoquinolin-2(1H)-yl)methanone] | 1000 to 10000 nM | > 10 µM
Cc1c(O)cc(O)c(C(=O)N2Cc3ccccc3C2CO)c1OCc1ccccc1 (centres unmarked) [Example 63, (2-(benzyloxy)-4,6-dihydroxy-3-methylphenyl)(1-(hydroxymethyl)isoindolin-2-yl)methanone] | 1000 to 10000 nM | > 10 µM
Cc1c(O)cc(O)c(C(=O)N2CCc3ccccc3C2CO)c1OCc1ccccc1 (centres unmarked) [Example 65, (2-(Benzyloxy)-4,6-dihydroxy-3-methylphenyl)(1-(hydroxymethyl)-3,4-dihydroisoquinolin-2(1H)-yl)methanone] | > 10000 nM | > 10 µM
Cc1c(O)cc(O)c(C(=O)N2Cc3ccccc3C(CO)C2)c1OCc1ccccc1 (centres unmarked) [Example 66, (2-(Benzyloxy)-4,6-dihydroxy-3-methylphenyl)(4-(hydroxymethyl)-3,4-dihydroisoquinolin-2(1H)-yl)methanone] | 1000 to 10000 nM | > 10 µM
Cc1c(O)cc(O)c(C(=O)N2Cc3ccc(CN(C)C)cc3C2)c1OCc1ccccc1 [Example 68, (2-(Benzyloxy)-4,6-dihydroxy-3-methylphenyl)(5-((dimethylamino)methyl)isoindolin-2-yl)methanone] | < 1000 nM | > 10 µM
Cc1c(O)cc(O)c(C(=O)N2Cc3ccc(CN4CCOCC4)cc3C2)c1OCc1ccccc1 [Example 69, (2-(Benzyloxy)-4,6-dihydroxy-3-methylphenyl)(5-(morpholinomethyl)isoindolin-2-yl)methanone] | < 1000 nM | > 10 µM
Cc1c(O)cc(O)c(C(=O)N2CCc3ccccc32)c1OCc1ccccc1 [Example 70, (2-(Benzyloxy)-4,6-dihydroxy-3-methylphenyl)(indolin-1-yl)methanone] | 1000 to 10000 nM | > 10 µM
O=C(c1c(O)cc(O)cc1OCc1ccccc1)N1CCc2ccccc21 [Example 71, (2-(Benzyloxy)-4,6-dihydroxyphenyl)(indolin-1-yl)methanone] | 1000 to 10000 nM | 1 to 10 µM
Cc1c(O)cc(O)c(C(=O)N2CCCc3ccccc32)c1OCc1ccccc1 [Example 72, (2-(Benzyloxy)-4,6-dihydroxy-3-methylphenyl)(3,4-dihydroquinolin-1(2H)-yl)methanone] | 1000 to 10000 nM | > 10 µM
O=C(c1c(O)cc(O)cc1OCc1ccccc1)N1CCCc2ccccc21 [Example 73, (2-(Benzyloxy)-4,6-dihydroxyphenyl)(3,4-dihydroquinolin-1(2H)-yl)methanone] | 1000 to 10000 nM | 1 to 10 µM
Cc1c(O)cc(O)c(C(=O)N2Cc3ccncc3C2)c1OCc1ccccc1 [Example 74, (2-(Benzyloxy)-4,6-dihydroxy-3-methylphenyl)(1,3-dihydro-2H-pyrrolo[3,4-c]pyridin-2-yl)methanone] | < 1000 nM | > 10 µM
Cc1c(O)cc(O)c(C(=O)N2Cc3cccc(CN4CCN(C)CC4)c3C2)c1OCc1ccccc1 [Example 75, (2-(Benzyloxy)-4,6-dihydroxy-3-methylphenyl)(4-((4-methylpiperazin-1-yl)methyl)isoindolin-2-yl)methanone] | < 1000 nM | > 10 µM
Cc1c(O)cc(O)c(C(=O)N2CCc3ccc(C(=O)N(C)C)cc3C2)c1OCc1ccccc1 [Example 77, 2-(2-(Benzyloxy)-4,6-dihydroxy-3-methylbenzoyl)-N,N-dimethyl-1,2,3,4-tetrahydroisoquinoline-7-carboxamide] | < 1000 nM | > 10 µM
Cc1c(O)cc(O)c(C(=O)N2CCc3cc(C(=O)N(C)C)ccc3C2)c1OCc1ccccc1 [Example 78, 2-(2-(benzyloxy)-4,6-dihydroxy-3-methylbenzoyl)-N,N-dimethyl-1,2,3,4-tetrahydroisoquinoline-6-carboxamide] | < 1000 nM | > 10 µM
Cc1c(O)cc(O)c(C(=O)N2Cc3cccc(OC4CCOC4)c3C2)c1OCc1ccccc1 (centres unmarked) [Example 88] | < 1000 nM | > 10 µM
